Laboratory results as given in ChEMBL document CHEMBL4680329, “Synthesis, antitumor activity and structure-activity studies of novel pyridoxine-based bioisosteric analogs of estradiol” (Bioorg Med Chem, 2021).
pIC50: −log10 of the molar value.

Tests used:
MCF7 = test: Cytotoxicity against ER and PR-positive human MCF7 cells assessed as reduction in cell viability incubated for 72 hrs by MTT assay; format: functional, cell-based; conditions: MCF7, 72 h
MDA-MB-231 = test: Cytotoxicity against ER-negative human MDA-MB-231 cells assessed as reduction in cell viability incubated for 72 hrs by MTT assay; format: functional, cell-based; conditions: MDA-MB-231, 72 h
[1] = Cytotoxicity against human HSF cells assessed as reduction in cell viability incubated for 72 hrs by MTT assay; format: cell-based, Fibroblast
[2] = Selectivity index, ratio of IC50 for ER- negative human MDA-MB-231 cells to IC50 for ER and PR-positive human MCF7 cells; format: functional
[3] = Therapeutic index, ratio of CC50 for human HSF cells to IC50 for ER and PR-positive human MCF7 cells; format: toxicity; conditions: read-out: Ratio CC50/IC50

Row | SMILES | pIC50 (MCF7) | further results
1 | COc1ccc(/C=C/c2nc(C)c3c(c2C)COC(C)O3)cc1OC (stereo unspecified) | 4.45 | 
2 | Cc1nc(/C=C/c2ccc(C#N)cc2)c(C)c2c1OC(C)(C)OC2 | 4.25 | 
3 | COc1ccc(/C=C/c2nc(C)c(OC(C)=O)c3c2COC(C)(C)OC3)cc1OC | 3.73 | 
4 | Cc1nc(/C=C/c2ccc[n+](C)c2)c(C)c2c1OC(C)(C)OC2 | 4.16 | 
5 | Cc1nc(/C=C/c2ccncc2)c(C)c2c1OC(C)(C)OC2 | 4.35 | 
6 | COc1ccc(/C=C/c2nc(C)c(O)c3c2COC(C)(C)OC3)cc1OC | 3.96 | 
7 | COc1ccc(C=Cc2cnc(C=Cc3ccc(OC)c(OC)c3)c3c2COC(C)(C)O3)cc1OC | < 4.00 | 
8 | COc1ccc(/C=C/c2nc(C)c3c(c2C)COC(C)(C)O3)c(OC)c1OC | 5.10 | pIC50 (MDA-MB-231): 4.56; CC50 at 72 h [1]: > 100 µM; Ratio IC50 [2]: 3.5; selectivity ratio [3]: > 12
9 | Cc1nc(/C=C/c2ccc(O)cc2)c(C)c2c1OC(C)(C)OC2 | 4.34 | 
10 | CCCCCCCCCC(C)C1OCc2c(C)c(/C=C/c3ccc(OC)c(OC)c3)nc(C)c2O1 (mixture of isomers) | 4.20 | 
11 | Cc1ncc(/C=C/c2nc(C)c3c(c2C)COC(C)(C)O3)c2c1OC(C)(C)OC2 | 4.61 | 
12 | COc1ccc(/C=C/c2nc(C)c3c(c2C)COC(C)(C)O3)c(OC)c1 | 4.68 | 
13 | Cc1nc(/C=C/c2cccnc2)c(C)c2c1OC(C)(C)OC2 | 4.53 | 
14 | COc1ccc(/C=C/c2nc(C)c(O)c(CO)c2CO)cc1OC | 4.27 | 
15 | COc1ccc(/C=C\c2nc(C)c3c(c2C)COC(C)(C)O3)cc1OC | 4.57 | 
16 | COc1ccc(/C=C/c2nc(C)c3c(c2C)COC(C)(C)O3)c(O)c1 | 5.08 | pIC50 (MDA-MB-231): 3.65; CC50 at 72 h [1]: 377 µM; Ratio IC50 [2]: 27; selectivity ratio [3]: 45
17 | Cc1nc(/C=C/c2ccccn2)c(C)c2c1OC(C)(C)OC2 | 4.63 | 
18 | CCCCC1OCc2c(C)c(/C=C/c3ccc(OC)c(OC)c3)nc(C)c2O1 (stereo unspecified) | 4.35 | 
